Data: patent US20120003270A1, “6-SUBSTITUTED ISOFLAVONOID COMPOUNDS AND USES THEREOF” (priority 2008, published 2012)

Experiments:
PGE2 = PGE2 synthesis in RAW 264.7 (ELISA); format: cell-based, mouse; details: LPS 50 ng/ml, 16 hrs
Protocol: (§1) The mouse macrophage cell line RAW 264.7 was cultured in DMEM supplemented with foetal calf serum (FCS), 2 mM glutamine and 50 U/ml penicillin/streptomycin. Cells were treated with either test compounds (in 0.025% DMSO) or vehicle alone, and added one hour before 50 ng/ml LPS. After incubation for 16 hrs, culture media was collected for PGE2 or TXB2 measurement by ELISA (Cayman Chemical), and TNFα measurement using an ELISA (Becton Dickinson).

eNOS = eNOS mRNA expression in HCAECs (real-time PCR); format: cell-based, human; details: 10 μM, 24 hr; for Average increase in the expression of eNOS: average of experiments
Protocol: HCAECs were grown as described above. Because cell viability was less than 100% at 30 and 100 μM, eNOS experiments were conducted at one concentration (10 μM). After incubation, total RNA was extracted using TRI reagent (Sigma, St Louis, Mo., USA), following the manufacturer's protocol. RNA was quantitated and normalized to 100 ng/μl using the SYBR Green II assay (Molecular Probes, Eugene, Oreg., USA) before being reverse transcribed using iScript (Bio-Rad, Hercules, Calif., USA). eNOS (sense 5′-CCATCTACAGCTTTCCGGCGC-3′ and antisense 5′-CTCTGGGGTGGCCTTCAGCA-3′) and 18S (sense 5′-CGGCTACCACATCCAAGGAA-3′ and antisense 5′-GCT GGA ATT ACC GCG GCT-3′) mRNA levels were determined by real-time PCR using iQ SYBR Green Supermix (Bio-Rad) in an iCycler iQ RealTime thermocyler detection system (Bio-Rad Laboratories). The cycling parameters were 95° C. for 30 seconds, 62° C. for 30 seconds, and 72° C. for 30 seconds for 40 cycles, and real-time data was collected at each cycle. There were six replicates.

PMA-induced ear swelling = experiment: Murine ear inflammation assay, PMA; format: in vivo, mouse; details: 25 mg/kg i/p; for Change in ear thickness (mean ± SD, ×0.01 mm): 5 hr after PMA
Protocol: Groups of 5-6 female BALB/c mice (ARC, WA, Australia), weighing 15-21 g were injected intraperitoneally (i/p) with selected compounds of the formula (I) at 25 mg/kg delivered in polyethylene glycol (PEG) 400: phosphate buffered saline (PBS) 1:1 or ethanol: propanediol:PBS 4:9:7 either 30 min prior to or immediately before the inflammogen was applied to the ears. Mice were anaesthetised using isoflurane and baseline thickness of both ears was measured using a spring micrometer. Each mouse received a total of […] of either AA in ethanol (50 mg/ml or 200 mg/ml) or PMA in either ethanol or acetone (0.2 mg/ml) applied to the inner and outer surfaces of each pinna (i.e. 0.5 mg or 2 mg AA or 2 μg PMA per ear). Mice were anaesthetised again to re-measure the ears at 1 hr post-AA application and 5 hr after PMA. The difference in ear swelling pre- and post-application of inflammogen for each ear was calculated, and the average for the two ears of each mouse taken. The difference in mean swelling of each test group compared to the group given vehicle alone was calculated using a general ANOVA using Dunnett's Multiple Comparison test when multiple compounds were tested in the one experiment or a two-tailed unpaired t-test when only one compound was tested (Prism 4, Graphpad Software).

TXA2 = TXA2 synthesis in RAW 264.7 (ELISA); format: cell-based, mouse; details: LPS 50 ng/ml, 16 hrs
Protocol: as §1

[1] = tested on: splenocytes (T and B cells); experiment: Mitogen-stimulated splenocyte proliferation (MTT); format: cell-based, mouse; details: 10 μM, 3 day incubation, ConA or LPS
Protocol: Male Skh-1:HR1 (hairless) mice, approximately six weeks old were killed by cervical dislocation. Single cell suspensions were made from the spleen and erythrocytes were lysed in buffer (0.14M NH4Cl, 17 mM Tris, pH 7.2). The remaining splenocytes were cultured in RPMI-1640 (Gibco) supplemented with 10% (v:v) FBS, 200 mM L-glutamine, penicillin/streptomycin and […] 2-mercaptoethanol. Splenocytes were added to quadruplicate wells containing either concanavalin A (ConA, Sigma-Aldrich—0.4 μg/well), LPS (Sigma-Aldrich—1 μg/well) or no mitogen, as well 10 μM of test compound in DMSO. Samples were analysed after a 3 day incubation at 37° C. in 5% CO2 in air. Methylthiazoletetrazolium (MTT) is bioreduced by viable cells into a coloured formazan product that is soluble in DMSO. Thus the quantity of formazan product is directly proportional to the number of living cells in culture, and can be measured using a spectrophotometer at 570 nm. MTT was added to each well, incubated for a further 4 hrs and then colour developed with 0.04N HCl in isopropanol. Culture supernatants were stored after collection at −80° C. and both T and B cells analysed by ELISA (BD Biosciences) for IFN-γ (a Th-1 cytokine) and for T cells alone, IL-6 (a Th-2 cytokine).

red blood cells (RBC) = experiment: Peroxyl radical (AAPH)-induced red blood cell lysis; format: cell-based; details: test compounds at 1 μM; AAPH 150 mM; vehicle 40.0
Protocol: Freshly collected heparinised venous blood (10 ml, on ice) was aliquotted into 1.8 ml sterile eppendorf tubes and centrifuged for 10 minutes at 2600 rpm at 4° C. Plasma and buffy coat layers were removed (approximately 900 μl) and packed red blood cells (RBC) were then washed by the addition of 900 μl of sterile, ice cold PBS. This washing procedure was repeated twice. Packed RBC were resuspended by the addition of 900 μl of ice-cold, sterile PBS (and termed RBC stock). RBC stocks were stored at 4° C. for a maximum of three days. All working suspensions of RBC were prepared fresh daily by diluting 200 μl of RBC stock into 10 ml of ice-cold, sterile PBS and 50 μl added to each well.
Stocks of AAPH were freshly prepared for individual experiments as follows. […] Turbidity of RBC suspensions were monitored using a Tecan microplate reader at 690 nm (37° C.) with gentle vortexing. Assays were performed in quadruplicate and readings were taken every 5 minutes over 5 hours. RBC lysis curves were constructed by plotting absorbance (mean of 4 readings) against time. Time to half-lysis was calculated by taking the highest absorbance reading (no lysis) and the lowest absorbance reading (maximum lysis). The sum of these two readings divided by two gave the absorbance at half-lysis. Simple regression analysis was used to calculate the time at which half-lysis absorbance occurred.

SMILES	PGE2 (PGE2; 1 μM) [pg/mL]	PGE2 (PGE2; 10 μM) [pg/mL]	Average increase in the expression of eNOS (eNOS) [%]	Increase in expression of eNOS mRNA relative to control cells (eNOS; EXPT 1)	Increase in expression of eNOS mRNA relative to control cells (eNOS; EXPT 2)	% Change compared with vehicle (PMA-induced ear swelling) [%]	Change in ear thickness (mean ± SD, ×0.01 mm) (PMA-induced ear swelling) [×0.01 mm]	TXB2 (TXA2; 1 μM) [pg/mL]	TXB2 (TXA2; 10 μM) [pg/mL]	Effect on splenocyte (T and B cell) numbers [1]	Time taken to reach half-lysis, time (red blood cells (RBC)) [min]	Increase in expression of eNOS mRNA relative to control cells (eNOS; EXPT 3)
O=C(O)C1CCCN1Cc1cc2c(cc1O)OCC(c1ccc(O)cc1)=C2 (centres unmarked) [Compound (3)]	2890.02 ± 320.91	2031.43 ± 261.59	325	372 ± 138% (0.00001)	277 ± 212 (0.002)	0	37.9 ± 2.6	374.8 ± 132.29	287.04 ± 75.58	little effect on cell numbers	88.6	
CN(C)Cc1cc2c(cc1O)OCC(c1ccc(O)cc1)=C2 [Compound (1)]	2601.37 ± 153.53	847.96 ± 144.83	45	52 ± 25% (0.0001)	53 ± 49 (0.009)	−12.3	28.9 ± 3.071	1333.17 ± 121.78	1149.14 ± 480.27	markedly and significantly immunosuppressive to T cells and to a lesser extent, B cells	154.6	30 ± 30 (0.014)
